PMC9255995 (Oncotarget, 2022)

How the values were obtained:
[1] = molecular target: CDK4/CyclinD1 (Homo sapiens, UniProt P11802); conditions: cell-free assay, KiATP
Method: Compounds were mixed with substrate mix (C-terminal retinoblastoma fragment [CTRF] peptide and ATP/33-P ATP) at a final concentration range of 2 μM–0.1 nM. The mix was incubated for 90 min at RT and the reaction was then stopped by adding 80 μl of 10% ortho-Phosphoric acid. The mix was next transferred to Multiscreen filter plates (Millipore) to retain phosphorylated peptide. The plates were read in a Microbeta Trilux instrument. Reaction mix with excess of EDTA was used as assay “bottom signal”; complete reaction mix without the inhibitor/compound was used as assay “top signal”.
For IC50 determination, results were fitted to a four-parameter dose-response curve using the following equation:
For the ATP saturation studies Ki and K’i parameters were estimated using the formula:
V=Vmax[S]/[Km(1+[I]/Ki)+[S](1+[I]/Ki')]

[2] = system: pRb in MDA-MB-134 cells; assay: Inhibition of pRb in breast cancer cell line MDA-MB-134; type: cell-based; conditions: Homo sapiens; 16 hours
[3] = system: pRb (Ser780) in MDA-MB-453 cells; assay: pRb (Ser780) high content imaging cellular assay, CDK4-dependent MDA-MB-453; type: cell-based; conditions: Homo sapiens, CDK4-dependent cell line, n = 4, read-out: pRb (Ser780) Cellular assays IC50 MDA-MB-453
Method: (§1) Intracellular phosphorylation of Rb in its residue 780 (Ser780) was measured using fluorescently labeled phospho-specific antibodies and high content imaging. […]
(§2) The mean fluorescence intensity, (Thermo Fisher P3566) dilution in PBS was added for 1 h or median of fluorescence (MFI), was calculated, and at RT. Fluorescence plates were scanned with ACUMEN compared for individual well and condition. EXPLORER™ monitoring Alexa Fluor 488 and PI signals Cell cycle was analyzed using a Ki67/PI protocol. using 488nm wavelength. […]
(§3) (Immunostep, PI/RNASE) for 15 min at RT in the dark. and representation of final readouts. JMP (Statistical […]
(§4) pRb Ser780 – high content imaging cell-based was incubated with an antibody against Annexin V. After assay [previously described in Torres-Guzmán et al. 10 minutes of incubation in dark, cells were washed twice (2017)] using Annexin buffer V. Finally, cells were analyzed using MDA-MB-453 (CDK4-dependent) and NCI-H1568 the flow cytometer where PI (1:100) was automatically (CDK6-dependent) cells were seeded at a density of 5 000 added. The percentage of cells at the different phases of and 3 000 cells per well, respectively, in 96-well plates. apoptosis was represented (PI–/Annexin V- for Alive cells, Between 14–24 h after seeding, cells were treated with PI–/Annexin V+ for Early apoptotic cells, PI+/Annexin […]
(§5) V+ for Late apoptotic cells and PI+/Annexin V– for Dead
(§6) Compounds were provided as 10mM stock in 100% cells).
(§7) DMSO and were further diluted to achieve the desired Senescence final concentration (DMSO 0.2%). For fluorescent detection of β-galactosidase, cells After treatment with compounds, the cells were washed with PBS 1X and fixed using 2% PFA incubated at 37°C and 5% CO2 for 4h before being (Acros organics, 119690010) for 10 minutes. Then, cells washed once with PBS and adding 100 μl of fresh media. were washed using PBS+1%BSA and incubated with the […]

[4] = system: pRb in BT474 cells; assay: Inhibition of pRb in breast cancer cell line BT474; type: cell-based; conditions: Homo sapiens, BT-474; 16 hours
[5] = system: pRb in MDA-MB-231 cells; assay: Inhibition of pRb in breast cancer cell line MDA-MB-231; type: cell-based; conditions: Homo sapiens, 16 hours
[6] = system: Rb1-deficient breast cancer cell lines; assay: Breast cancer cell panel proliferation (nuclei count); type: cell-based, human; conditions: two doublings
Method: A panel of 37 BC cell lines (see Supplementary Table 3 for details) was obtained from the American Type Culture Collection (ATCC, Manassas, Virginia, USA 30-4500 K) or the German Collection of Microorganisms and Cell Cultures GmbH (DSMZ). Cells were cultured according to ATCC or DSMZ recommendations for fewer than ten passages. Cells were seeded in 96 or 384-well plates and incubated overnight prior to treatment.
Cells were plated at 1,000 or 2,000 cells per well in 384-well plates in a total volume of 25 μl of either growth media alone; with 2 μM staurosporine; or with decreasing concentrations of test compounds with a range 20 μM–1 nM. Test compounds were prepared in 100% DMSO using a dilution factor of 1:3 before addition to the cells pre-diluted in growth media. Cells were incubated at 37°C until the untreated cells had doubled twice. Cells were fixed with 70% ethanol, treated with RNAse and nuclei stained with Propidium Iodide (PI). Cell nuclei per well were counted using an ACUMEN EXPLORER™ (STP LABTECH LTD) to determine the number of cells remaining after treatment. […]
were thawed and resuspended in IMDM, 10% hiFBS […]
by curve, slope = steepness of curve at IC50. IC50: 558385), anti-CDK4 antibody (Abcam ab75511) and anti- […]
(ligand binding, enzyme response) by 50%. Fujifilm LAS4000. Actin (Sigma A5441) was used as a %Inh = [(median Max- x/ median Max – median loading control. […]
model were plotted as Geometric means in a waterfall plot using knime workflows. […]
containing 200 μg/ml Ribonuclease A (Sigma R6513).
To monitor senescence, cells […]
treated cells. The same procedure was also followed to instructions. […]
process. was removed. Cell pellet was incubated with Annexin […]
treated controls. […] Cells were analyzed […]
antibodies against CD13-FITC and CD11b-PE. After 10 exclusion and singlets selection). A minimum of 5000 […]
and supernatant was discarded. Cells were resuspended in (Alive). AnnexinV+/PI– (Early apoptosis), Annexin+/PI+ buffer for acquisition in flow cytometer. […]
cytometer (488-nm laser and 585/40nm filter). […] Finally, cells were washed and analyzed

[7] = system: pRb in MCF-7 cells; assay: Inhibition of pRb in breast cancer cell line MCF-7; type: cell-based; conditions: Homo sapiens, MCF7; 16 hours
[8] = system: T47D cells; assay: T47D continuous dosing, apoptosis by Annexin V/PI flow cytometry; type: cell-based, human; conditions: after 8 days of continuous dosing
Method: T47D cells were seeded in six-well plates (50 000 cells/well) in 2 ml of cell medium (10% hiFBS [Fisher] and 1% Pen/Strep [Invitrogen]). […] Non-treated cells (0.04% DMSO) and staurosporine 1 μM were used as controls for minimum and maximum inhibition controls respectively. […] Cells were then detached using trypsin and transferred to the deep well plate and spun at 1 300 rpm for 5 min. Cell pellet was washed using PBS1X and plated for apoptosis measurement (Annexin V/PI), using the procedure described above (mature neutrophils). All cells were gated on FSC/SSC to exclude debris and doublets.

[9] = system: pRb (Ser780) in NCI-H1568 cells; assay: pRb (Ser780) high content imaging cellular assay, CDK6-dependent NCI-H1568; type: cell-based; conditions: Homo sapiens, CDK6-dependent cell line, n = 4, read-out: pRb (Ser780) Cellular assays IC50 NCI-H1568
Method: as §1
as §2, with “using the flow cytometer (gated on single and alive RNase A (Sigma R6513) and Propidium Iodide (PI) cells subpopulations). The mean” for “The mean”
as §3, §4, §5, §6, §7

[10] = system: pRb (Ser780) in MDA-MB-453 cells; assay: pRb (Ser780) washout experiment in MDA-MB-453; type: cell-based; conditions: Homo sapiens
Method: as §2, with “using the flow cytometer (gated on single and alive RNase A (Sigma R6513) and Propidium Iodide (PI) cells subpopulations). The mean” for “The mean”
Next, cells were washed, Raw data were analyzed with FlowJo 10.6 software. and the cell pellet was incubated with PI/RNase A Graph Pad v8.4.3 software was used for data analysis (Immunostep, PI/RNASE) for 15 min at RT in the dark. and representation of final readouts. JMP (Statistical Cells were analyzed using the flow cytometer (gated for Discovery from SAS) was used for the statistical treatment debris exclusion and single cells). A minimum of 5 000 (ANOVA, pair-wise analysis) of the data. […]
All data were analyzed using FlowJo 10.6 and Graph Pad […]
as §4, §5, §6, §7

[11] = system: pRb in MDA-MB-175 VII cells; assay: Inhibition of pRb in breast cancer cell line MDA-MB-175 VII; type: cell-based; conditions: Homo sapiens, 16 hours
[12] = system: pRb in HCC70 cells; assay: Inhibition of pRb in breast cancer cell line HCC70; type: cell-based; conditions: Homo sapiens, 16 hours
[13] = system: pRb in EFM-19 cells; assay: Inhibition of pRb in breast cancer cell line EFM-19; type: cell-based; conditions: Homo sapiens, 16 hours
[14] = system: pRb in MDA-MB-361 cells; assay: Inhibition of pRb in breast cancer cell line MDA-MB-361; type: cell-based; conditions: Homo sapiens, 16 hours
[15] = Viability of isolated mature neutrophils from human whole blood (Annexin V/PI); type: cell-based
Method: Human whole blood was obtained from six healthy donors who previously provided written informed consent. Mature neutrophils were isolated from human whole blood, using a negative-selection technique (MACSxpress isolation kit, Miltenyi 130-104-434). CD16 cell surface expression (Miltenyi, 130-113-396) was used as quality control; only samples with yield > 95% passed QC. CD34+ human bone marrow primary progenitor cells were obtained from Tebu bio (BM34C-4).
Mature neutrophils were plated in a 96-well plate (60K cells per well) in 100 μl RPMI 1640 (Invitrogen), 10% hiFBS (Fisher) and 1% Pen/Strep (Invitrogen).
Neutrophils were plated in a 96-well plate (60K cells/well) in the above-mentioned cell medium. A 10 mM stock of each CDK4 & 6i was used to make ten-point 1:3 serial dilutions in 100% DMSO; multiple dilution steps were used to reach the concentration in the assay: 10 μM, 0.1% DMSO. Non-treated cells (0.1% DMSO) and roscovitine (20 μM) were used as controls. Neutrophils were incubated for 6 h. Following treatment, cells were washed with FACS flow (BD, 342 003), and supernatant was removed. The cell pellet was stained with Annexin V-FITC antibody for 10 min in the dark. Cells were washed with Annexin buffer, centrifuged at 300 G for 5 min, supernatant was discarded, and cell pellet was resuspended in 100 μl of Annexin buffer and analyzed by flow cytometry. PI 1:200 was added automatically by the cytometer. All incubations occurred at 37°C, 5% CO2.
The percentage of alive, early apoptosis, late apoptosis, and dead cells was monitored using the Annexin V/PI assay. Cells were incubated with an anti-human Annexin V-FITC antibody, binding specifically to phosphotidylserine (PS), for 10 min in the dark. PS redistributes to the outer part of the cell membrane in an early stage of apoptosis; in late apoptotic cells, as the cell membrane loses its integrity, both PS and PI can be detected. […]

[16] = read-out: relative IC50 for pRb (Ser780) reduction, 12 h after compound removal, MDA-MB-453, 4 h treatment then 12 h washout
[17] = MDA-MB-453, 4 h treatment, before compound removal, read-out: relative IC50 for pRb (Ser780) reduction, treatment phase

Chain of CDK4/CyclinD1 (P11802 whole entry): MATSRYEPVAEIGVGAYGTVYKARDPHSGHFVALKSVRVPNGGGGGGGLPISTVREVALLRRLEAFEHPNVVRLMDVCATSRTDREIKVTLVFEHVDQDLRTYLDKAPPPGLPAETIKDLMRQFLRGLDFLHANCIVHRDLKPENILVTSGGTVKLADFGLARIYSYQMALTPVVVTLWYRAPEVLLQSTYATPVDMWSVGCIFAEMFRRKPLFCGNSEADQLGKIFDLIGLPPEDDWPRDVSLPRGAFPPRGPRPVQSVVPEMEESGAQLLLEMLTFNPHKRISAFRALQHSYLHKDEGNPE
Chain of CDK4/CyclinD1 (P24385 whole entry partner): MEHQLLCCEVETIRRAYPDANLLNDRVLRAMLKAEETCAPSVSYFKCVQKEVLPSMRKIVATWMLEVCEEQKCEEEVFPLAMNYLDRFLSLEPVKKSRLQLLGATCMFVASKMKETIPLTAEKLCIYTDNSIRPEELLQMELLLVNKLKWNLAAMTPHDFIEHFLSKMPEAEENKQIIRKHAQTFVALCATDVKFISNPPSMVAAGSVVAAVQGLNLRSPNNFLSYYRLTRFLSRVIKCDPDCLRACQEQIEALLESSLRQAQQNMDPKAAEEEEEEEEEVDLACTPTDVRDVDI

CCN1CCN(Cc2ccc(Nc3ncc(F)c(-c4cc(F)c5nc(C)n(C(C)C)c5c4)n3)nc2)CC1 [Abemaciclib, abemaciclib]
specificity for CDK4/Cyclin D1 over CDK6/Cyclin D3 complexes [1]: approximately 14 fold
IC50 [2]: 8.5 ± 0.9 nM
IC50 [3]: 7.4 nM
IC50 [4]: 4.58 ± 2.9 nM
IC50 [5]: 17.1 ± 4.2 nM
activity in Rb1-deficient cell lines (proliferation) [6]: inactive
IC50 [7]: 19.4 ± 7.4 nM
percentage in total apoptotic and dead cells ([8]; 50 nM): 28.1%
percentage in total apoptotic and dead cells ([8]; 100 nM): 40.7%
IC50 [9]: 94 nM
IC50 [10, 16]: < 100 nM
IC50 [10, 17]: 6.4 nM
IC50 [11]: 17.8 ± 2.8 nM
IC50 [12]: > 6000 nM
IC50 [13]: 4.4 ± 1.2 nM
IC50 [14]: 8.24 ± 1.6 nM
viability at 6 h [15]: 82.5%

CN(C)C(=O)c1cc2cnc(Nc3ccc(N4CCNCC4)cn3)nc2n1C1CCCC1 [Ribociclib, ribociclib]
IC50 [2]: 60 ± 19.7 nM
IC50 [3]: 53 nM
IC50 [4]: 34 ± 26.7 nM
IC50 [5]: 71.5 ± 26.5 nM
activity in Rb1-deficient cell lines (proliferation) [6]: inactive
IC50 [7]: 116 ± 78.5 nM
IC50 [9]: 554 nM
IC50 [11]: 115 ± 80.9 nM
IC50 [12]: > 6000 nM
IC50 [13]: 31 ± 3.6 nM
IC50 [14]: 54.2 ± 13.8 nM
viability at 6 h [15]: 81.4%

CC(=O)c1c(C)c2cnc(Nc3ccc(N4CCNCC4)cn3)nc2n(C2CCCC2)c1=O [Palbociclib, palbociclib]
IC50 [2]: 20.5 ± 8.2 nM
IC50 [3]: 23 nM
IC50 [4]: 11.5 ± 5.5 nM
IC50 [5]: 16.1 ± 7.6 nM
activity in Rb1-deficient cell lines (proliferation) [6]: inactive
IC50 [7]: 25.6 ± 14 nM
percentage in total apoptotic and dead cells ([8]; 50 nM): 13.2%
percentage in total apoptotic and dead cells ([8]; 100 nM): 18.7%
IC50 [9]: 63 nM
IC50 [10, 16]: 447 nM
IC50 [10, 17]: 14.1 nM
IC50 [11]: 18.9 ± 4.7 nM
IC50 [12]: > 6000 nM
IC50 [13]: 11 ± 0.6 nM
IC50 [14]: 14.6 ± 2.1 nM
viability at 6 h [15]: 82.9%
